# Results as given in patent publication US11707557B2, “Compositions and devices incorporating water-insoluble therapeutic agents and methods of the use thereof” (COOK MEDICAL TECHNOLOGIES LLC, priority 2014, dated 2023).
# How the values were obtained:
# [1] = Drug release from injectable PG:gallate pastes (60:40) into PBS; assay type: physicochemical; settings: 60:40 PG:EGCG or PG:tannic acid, 2% w/w drug, PBS pH 7.4, 37° C.
# Experimental: Methods: 60:40% w/w PG:EGCG or PG:tannic acid was used in these studies. 588 mg of propylene glycol was weighed into a 20 mL glass vials and 392 of EGCG or tannic acid was added followed by vortexing to distribute and dissolve the gallates. The vials were warmed to 60° C. and vortexed until all the contents were in solution. At this time 20 mg of drug was added (2% w/w) and vortexed until in solution. The following drugs were used: paclitaxel, docetaxel, retinoic acid, amphotericin B, and curcumin. 100 mg of each paste was weighed into the base of a 15 mL glass test tube and 10 mL of phosphate buffered saline was added at pH 7.4 and the tubes were incubated at 37° C. for certain times. All 10 mL of the PBS release media was removed and 1 mL analyzed by HPLC for drug content. 10 mL of fresh PBS was then added to all tubes
# [2] = 24 h
# Experimental: (§1) PBS (EGCG) or water (tannic acid) was added and the final solution filtered through a 0.22 micron filter to remove any particulates. The solutions were analyzed for drug concentration using HPLC.
# (§2) PBS (EGCG) or water (tannic acid) was added and the final solution filtered through a 0.22 micron filter to remove particulates. The solution was then analyzed for drug concentration using absorbance spectroscopy at 450 nm.
# (§3) PBS (EGCG) or water (tannic acid) was added and the final solution was filtered through a 0.22 micron filter to remove any particulates and the solution was analyzed for drug concentration using HPLC.
# (§4) PBS (EGCG) or water (tannic acid) was added and the final solution filtered through a 0.22 micron filter to remove any particulates and the solution was analyzed for drug concentration using HPLC.
# (§5) PBS (EGCG) or water (Tannic acid) was added and the final solution was filtered through a 0.22 um filter to remove any particulates and the solution was analyzed for drug concentration using HPLC.
# (§6) Method: drug and EGCG or tannic acid were dried down from acetonitrile (or methanol for tannic acid) solutions at various drug to EGCG or tannic acid ratios. PBS (EGCG) or water (Tannic acid pH adjusted to 7) was added and the final solution was filtered through a 0.22 um filter to remove any particulates and the solution was analyzed for drug concentration using HPLC methods.
# [3] = Drug in EGCG or tannic acid films (optical microscopy, DSC); assay type: physicochemical
# Experimental: Thin films of drugs were cast in either EGCG or tannic acid from ethanol solutions. Drugs in either EGCG or tannic acid were dissolved in ethanol at a final total concentration of 20% w/v and spot pipetted in repeated 10 microliter volumes and allowed to dry between spotting. This allowed a thin film to accumulate and dry. Some solutions contained either glycerol or polyethylene glycol 300 at 10% or 20% w/w to EGCG or tannic acid. The films were allowed to dry and examined by optical microscopy for drug precipitation. Films were allow analyzed by differential scanning calorimetry (DSC) for identify drug crystals.
# Caco2 cells = test: Transport of curcumin through Caco2 cells (transwell); assay type: in vitro ADME, human; settings: 3 hours
# From the text: Caco2 cells are continuous cells of human epithelial colorectal adenocarcinoma cells. They contain drug efflux proteins and may be used in the same way that MDCK-MDR cells are, i.e. to measure drug accumulation in cells that have the ability to efflux drugs.
# Caco2 cells (ATCC, VA, USA) are proliferating gut epithelial cells used throughout the pharmaceutical sciences as a model of oral drug availability. These cells may be grown in cell culture on membranes where they align with an apical external surface (equivalent to the gut lumen) and a basolateral lower surface that is equivalent to the cell side adjacent to the blood capillaries. When an EGCG curcumin solution was placed in the upper portion of a transwell containing these cells on a membrane for three hours, large amounts of curcumin either passed through or accumulated within the caco2 cells.
# Caco2 cells were seeded onto 0.3 um transwell membranes and left to grow to confluence for 3 days. A conductivity electrode measured the Transcellular electrical resistance value over the next few days and when it had reached […] (tight junctions established) the experiment began. A solution of curcumin (250 microgram per ml) in EGCG (25 mg per ml) in Hanks buffer pH 7.4. was added to the top well for 3 hours. […] All solutions were then analyzed for curcumin content using uv-vis absorbance spectroscopy at 430 nm.
# pig skin = tested on: pig skin
# Experimental: Various gallate-containing drug formulations were prepared and applied to ex vivo pig skin samples. Fresh pig skin was obtained from a local butcher, processed within three hours and then frozen. For experiments, the skin was slowly thawed, excess fat removed from the base, and cut into 1×2 cm squares. These squares were mounted and clamped on Franz diffusion cells, which kept the tissue moist and isolated and exposed a 6 mm diameter of the upper skin surface for the application of a drug loaded formulation. Skin samples were then frozen and later cryosectioned in 50 μm slices. The drug in the slices was extracted and measured by HPLC or radioactive doping methods. A drug depth profile was then established for each drug.
# 1. Formulations containing a drug and a gallate. The drugs were dissolved in ethanol at various concentrations along with either EGCG or TA (500 mg/mL). Each solution was pipetted into 6×5 mm diameter aluminum cups (approximately 3 mm in height) by filling and allowing the ethanol to evaporate at 50° C. until all the solution was used up (80 mg per cup).
# 2. Formulations containing a drug, propylene glycol (“PG”) and a gallate. 300 mg of propylene glycol was mixed with 200 mg of EGCG or TA until dissolved. Various amounts of drug were added to this mixture and dissolved. 80 mg of the resulting viscous solution was weighed into 6×5 mm aluminum cups.
# 3. Control Formulations. Control formulations were prepared using Glaxal base and Plogel. Glaxal base is a cream used by compounding pharmacists to manufacture topical formulations of drugs. Plogel is an alternative used for dermal formulations. […] Drug was added to a known weight of Glaxal or Plogel and levigated to produce a standard drug dispersion. These formulations were prepared the evening before the experiment. For some drugs, radioactive drug (where available) was also added as a doping additive to facilitate quantitation in tissues.
# Eutectics: In some cases, gallate containing compounds and drugs were formulated in eutectic mixtures. These included a 60:40 (% w/w) mixture of menthol with ibuprofen. These agents acted as a carrier for retinoic acid, which was then dissolved in this liquid. The 3-drug eutectic/solution was then blended into the CMC/poloxamer emulsion containing EGCG (2.5%). […] The emulsion was stabilized with poloxamer.
# Example 29. Pig skin studies. Aluminum cups containing drug formulations were inverted on top of the pig skin in the Franz diffusion cell so that the formulation contents were in contact with the skin. […]
# Analysis. […] The amount of drug in each group of skin sections was then determined using HPLC methods, or by radioactivity counting on a liquid scintillation counter. The amount of drug in each group of skin sections was expressed as μg/g or mg/g of tissue.
# [4] = Drug concentrations obtained using EGCG at 50 mg per ml (microscopic check for particulates); assay type: physicochemical
# Experimental: EGCG at 50 mg/ml and drug at approximately 250 micrograms per ml were dissolved in the listed solvent and dried down in a test tube under nitrogen. 1 ml of water was added, followed by vortexing. The solutions were examined for particulate matter under a microscope. If no particulates were present, the process was repeated with a higher drug amount. All the tested drugs remained in solution at the listed concentrations except for nystatin and hesperidin.
# Experimental for physchem: as §1, §2, §3, §4, §5, §6
smiles,measurement,setting,value
COc1cc(/C=C/C(=O)CC(=O)/C=C/c2ccc(O)c(OC)c2)ccc1O [curcumin],drug release from PG:gallate paste,[1],relatively controlled release of the drug over 24 hours
same,stability of EGCG solutions of the drug,[2],stable for 24 hours
same,stability of tannic acid solutions of the drug,[2],stable for 24 hours
same,solubility,"physchem; aqueous with cosolvent or surfactant or cyclodextrin, thermodynamic from solid, drug concentration solubilised at maximum EGCG concentration",~4700 µg/mL
same,solubility,"physchem; aqueous with cosolvent or surfactant or cyclodextrin, thermodynamic from solid, drug concentration solubilised at maximum tannic acid concentration",~12000 µg/mL
same,solubility,"physchem; water, free solubility in water",< 1 µg/mL
same,drug loading at which drug precipitated out of film,[3],approximately 5 % w/w
same,curcumin uptake and transport through the cells,"Caco2 cells; curcumin 250 microgram per ml in EGCG 25 mg per ml, versus diblock copolymer",much higher levels
same,curcumin passing through and entering the cells,"Caco2 cells; diblock copolymer micellar solution, 250 micrograms/ml",small amount
same,drug uptake by pig skin,pig skin,essentially no drug uptake
same,Visual appearance,[4],clear
same,Drug Concentration,[4]; 1 ml of water,250 microgram/ml
same,Particulates present,[4]; under a microscope,no
